Measured values as given in patent US12116387B2, “Antimicrobial peptides” (priority 2021, dated 2024).
Read-outs that look alike come from different tables or passages of the source. Ends that are not written are not given here.

What was measured:
P. aeruginosa = test: Skin scarification (abscess) infection mouse model; type: in vivo; details: single dose 16 μmol L^−1
Excerpt: Despite these therapeutic properties, mast-MO retained some cytotoxicity towards human cells at concentrations immediately above its antimicrobial and immunomodulatory activities hindering its use as a potential therapy in humans. FIG. 6B pertains to design of mast-MO derivatives through permutation of its FLPII motif. FIG. 6C depicts cytotoxic activity of mast-MO and its permutation variants against human embryonic kidney cells (i.e., HEK293). FIG. 6D provides a schematic of the experimental design. Briefly, the back of mice was shaved, and an abrasion was generated to damage the stratum corneum and the upper layer of the epidermis. Subsequently, an aliquot of […] containing 5×10^7 CFU/20 μL of P. aeruginosa in PBS was inoculated over each defined area. One day post-infection, peptides (16 μmol L^−1) were administered to the infected area. […] Six animals per group were euthanized and the area of scarified skin was excised two days post-infection, homogenized using a bead beater for 20 min (25 Hz), and serially diluted for CFU quantification (statistical significance was determined using two-way ANOVA followed by Dunnett's test, ***p<0.001). […]
Skin abscess infection mouse model. […] Animals were euthanized and the area of scarified skin was excised two- and four-days post-infection, homogenized using a bead beater for 20 minutes (25 Hz), and serially diluted for CFU quantification. […]

[1] = test system: murine macrophages monocytes (RAW 264.7); test: Cytotoxicity against RAW 264.7 cells (MTT); type: cell-based
[2] = test system: mouse red blood cells (mRBCs); test: Hemolysis of mouse red blood cells; type: cell-based; details: 0.5 to 200 μmol L^−1
Protocol: Hemolysis assays. Hemolytic activity of peptides was determined by using fresh mouse red blood cells (mRBCs), by measuring the peptide-induced changes of the optical density (OD) at 540 nm (Victor X, Perkin-Elmer, Germany), 100% lysis was determined by analysing the supernatant of erythrocytes that had been incubated with Triton X-100 (1%).

[3] = test system: human red blood cells (hRBCs); test: Cytotoxicity / hemolysis against human red blood cells; type: cell-based
Protocol: Once the mechanisms by which the peptide targeted bacterial cells was elucidawted, the effect of the pentapeptide motif insertion on cytotoxicity against mammalian cells was evaluated.

[4] = test system: murine fibroblasts (L929); test: Cytotoxicity against L929 fibroblasts (MTT); type: cell-based
Protocol: Mammalian cells toxicity assays. L929 mice fibroblasts (Rio de Janeiro Cell Bank) and SPCs were seeded in 96-well microtiter plates in a concentration of 1.0×10^5 cells per well, in DMEM medium, supplemented with different concentrations of tested peptides (1-600 μM). After 48 h incubation, a thiazolyl blue tetrazolium bromide (MTT) protocol was performed. Briefly, 60% of the medium was removed, and 10 μL of MTT (5 mg mL^−1) (Sigma, USA) solution was added to each well and the plate was incubated for 4 h, in 5% CO2, at 37° C. The blue formazan product generated was dissolved by the addition of 100 μL of 100% DMSO (Mallinckrodt, Germany) per well. Plates were then gently swirled for 5 min, at room temperature, to dissolve the precipitate. The absorbance was monitored at 575 nm using a microplate spectrophotometer (Bio-Tek, USA). Cytotoxicity was determined as a percentage of the maximum value after subtracting the background. The results were expressed as the percentage of each sample compared to the negative control (PBS buffer, pH 7.4) and cell culture was incubated in a lysis buffer (10 mM Tris, pH 7.4, 1 mM ethylenediamine tetraacetic acid (EDTA), and 0.1% Triton X-100).

[5] = test system: human embryonic kidney (HEK293) cells; test: Cytotoxicity against HEK293 cells; type: cell-based
Excerpt: The FLPII motif was chosen for the permutations to preserve the natural antimicrobial activity of mast-L and also conserve the hydrophobic content inserted in the N-terminal extremity for the initial design of mast-MO. Next, we assessed the antimicrobial (FIG. 10) and cytotoxic activities of the mast-MO analog library against HEK293 cells (FIG. 6C). These specific cell line was chosen as it derives from human embryonic kidney cells and potential antimicrobial (i.e., AMPs, antibiotics) toxicity affects the kidneys, which are responsible for clearing such molecules (34). Also measured was whether the peptides aggregated at the highest concentration tested (128 μmoL^−1) (Table 7) since the motif inserted is composed of residues with aliphatic or aromatic side chain groups that may be prone to aggregation when in proximity within the primary peptide sequence, thus altering biological activity. Minor changes to the first five residues inserted in the mast-MO primary sequence led to a pronounced decrease in cytotoxic activity (2.5 to 5-fold) compared to mast-MO (FIG. 6C).

[6] = test system: E. coli and S. aureus strains; test: Systemic infection experiments, summary over all strains; details: 10 mg Kg^−1
Protocol: To determine the anti-infective activity of mast-MO in a pre-clinical mouse model, the ability of the peptide to kill pathogenic and drug-resistant E. coli and S. aureus strains was tested in a systemic sepsis infection mouse model (FIG. 5). The minimal bacterial load resulting in a lethal dose (LD100) 24 h post-intraperitoneal injection was first determined. […] Mice were infected with the LD100 of bacteria and treated 3 h post-infection with either mast-L (1 and 5 mg Kg^−1) or mast-MO (1, 5 and 10 mg Kg^−1), which were also administered intraperitoneally.
Systemic bacterial infection mouse model. […] The experiment was performed by intraperitoneal (i.p.) injection of the tested peptides to groups of 10 C57BL/6 mice. Each mouse was injected with a 0.5 mL solution of freshly prepared of peptides in PBS. The doses of peptide administered per mouse were 0, 10, 30, 50, 70 and 90 mg Kg^−1 of body weight. Animals were directly inspected for adverse effects for 6 h, and mortality was monitored for 7 days thereafter. Differences between groups were analysed using the Fisher exact test (differences were considered to be statistically significant when the P value was <0.05). Briefly, E. coli ATCC8739 and E. coli 1812446 or S. aureus ATCC 29213 and S. aureus (MRSA) ATCC33591 were plated on tryptic soy agar plus 5% sheep blood (blood agar, Himedia, India) from a frozen stock. Following 24 h of incubation of the agar plate, three isolated colonies were transferred to 1 mL of BHI. The broth culture was incubated overnight (12-16 h) at 37° C. with shaking. […] Mice were challenged with either strain of E. coli ATCC8739 and E. coli 1812446 or S. aureus ATC29213 and S. aureus (MRSA) ATCC33591 in a final volume of 200 μL of PBS by intraperitoneal injection (i.p.). The day of challenge was designated as day 1 of the experiment. Three hours after bacterial injection, mice (n=5) were treated, intraperitoneally, with different concentrations of peptides (1, 5 or 10 mg Kg^−1), LL-37, gentamicin and 10 mg Kg^−1 of imipenem or PBS for 8 days. For bacterial load evaluation, 5 mice per group were used. […]

mice = test system: mice
Protocol: Therefore, the anti-infective activity of mast-MO was then tested in pre-clinical mouse models. First, the toxicity of a single dose of either mast-L or mast-MO administered peritoneally to mice was assessed in order to determine the range of concentrations to be used in subsequent animal experiments. The hemolytic activity of mast-MO (up to 200 μmoL^−1) against murine red blood cells (Table 6) was also tested prior to conducting animal experiments.
Systemic bacterial infection mouse model. Acute toxicity assay was performed based on the work of Navon-Venezia and co-workers (46). The experiment was performed by intraperitoneal (i.p.) injection of the tested peptides to groups of 10 C57BL/6 mice. Each mouse was injected with a 0.5 mL solution of freshly prepared of peptides in PBS. The doses of peptide administered per mouse were 0, 10, 30, 50, 70 and 90 mg Kg^−1 of body weight. Animals were directly inspected for adverse effects for 6 h, and mortality was monitored for 7 days thereafter. Differences between groups were analysed using the Fisher exact test (differences were considered to be statistically significant when the P value was <0.05). Briefly, E. coli ATCC8739 and E. coli 1812446 or S. aureus ATCC 29213 and S. aureus (MRSA) ATCC33591 were plated on tryptic soy agar plus 5% sheep blood (blood agar, Himedia, India) from a frozen stock. Following 24 h of incubation of the agar plate, three isolated colonies were transferred to 1 mL of BHI. The broth culture was incubated overnight (12-16 h) at 37° C. with shaking. […] Mice were challenged with either strain of E. coli ATCC8739 and E. coli 1812446 or S. aureus ATC29213 and S. aureus (MRSA) ATCC33591 in a final volume of 200 μL of PBS by intraperitoneal injection (i.p.). The day of challenge was designated as day 1 of the experiment. Three hours after bacterial injection, mice (n=5) were treated, intraperitoneally, with different concentrations of peptides (1, 5 or 10 mg Kg^−1), LL-37, gentamicin and 10 mg Kg^−1 of imipenem or PBS for 8 days. For bacterial load evaluation, 5 mice per group were used. Animals were humanely killed 24 h after bacterial administration. To detect bacterial colonization, the peritoneal lavage samples were collected under sterile conditions. The peritoneal lavage was obtained by washing the cavity with 5 mL of sterile PBS. Samples were diluted serially, and 100 μL of each dilution was spread in duplicate on appropriate agar plates for the count of developed colonies. Cytokine levels (i.e., IFN-γ, IL-6, IL−10, IL−12p70 and TNF-α) in the peritoneal lavage of the mice both in the absence and presence of peptide treatment were quantified by ELISA (Peprotech, USA) according to the manufacturer's instructions.

[7] = RAW 264.7, 24 h, 0.5 to 200 μmol L^−1, MTT (Table 6)
[8] = Dose 90 mg Kg^−1, five mice per group

CC[C@H](C)[C@H](N)C(=O)N[C@@H](Cc1ccccc1)C(=O)N[C@@H](CC(C)C)C(=O)N1CCC[C@H]1C(=O)N[C@H](C(=O)N[C@H](C(=O)N[C@@H](CC(N)=O)C(=O)N[C@@H](CC(C)C)C(=O)N[C@@H](CCCCN)C(=O)N[C@@H](C)C(=O)N[C@@H](CC(C)C)C(=O)N[C@@H](C)C(=O)N[C@@H](C)C(=O)N[C@@H](CC(C)C)C(=O)N[C@@H](C)C(=O)N[C@@H](CCCCN)C(=O)N[C@@H](CCCCN)C(=O)N[C@H](C(=O)N[C@@H](CC(C)C)C(N)=O)[C@@H](C)CC)[C@@H](C)CC)[C@@H](C)CC [Analog 15, IFLPIINLKALAALAKKIL]
Side effects or adverse toxicity (P. aeruginosa): did not cause any side effects or adverse toxicity

FLPII [FLPII motif, FLPII]
Cytotoxic activity, Peptide Concentration [1, 7]: >200 µmol/L
Hemolytic activity, Peptide Concentration [2]: >200 µmol/L

gentamicin
Cytotoxic activity, Peptide Concentration ([1]; RAW 264.7 (Table 2)): >400 µmol/L
Cytotoxic activity, Peptide Concentration ([3]; hRBCs): >400 µmol/L
Cytotoxic activity, Peptide Concentration ([4]; L929): >400 µmol/L

CC[C@H](C)[C@H](NC(=O)[C@H](CCCCN)NC(=O)[C@H](CCCCN)NC(=O)[C@H](C)NC(=O)[C@H](CC(C)C)NC(=O)[C@H](C)NC(=O)[C@H](C)NC(=O)[C@H](CC(C)C)NC(=O)[C@H](C)NC(=O)[C@H](CCCCN)NC(=O)[C@H](CC(C)C)NC(=O)[C@H](CC(N)=O)NC(=O)[C@@H](NC(=O)[C@@H](NC(=O)[C@@H](NC(=O)[C@@H]1CCCN1C(=O)[C@H](CC(C)C)NC(=O)[C@@H](N)Cc1ccccc1)[C@@H](C)CC)[C@@H](C)CC)[C@@H](C)CC)C(=O)N[C@@H](CC(C)C)C(N)=O [Mast-MO, FLPIIINLKALAALAKKIL]
Concentration toxic against HEK293 [5]: 25 µmol⁻¹
Cytotoxic activity, Peptide Concentration ([5]; HEK293): 25 µmol/L
Cytotoxicity towards murine macrophages (RAW 264.7 cells), in words [1]: not cytotoxic
Cytotoxic activity, Peptide Concentration ([1]; RAW 264.7 (Table 2)): >400 µmol/L
Hemolytic activity in human red blood cell assays ([3]; concentration range tested 1-400 μmoL^−1): did not present hemolytic activity
Cytotoxic activity, Peptide Concentration ([3]; hRBCs): >400 µmol/L
Cytotoxicity towards murine fibroblasts (L929 cells), in words [4]: not cytotoxic
Cytotoxic activity, Peptide Concentration ([4]; L929): >400 µmol/L
Toxicity when injected systemically in the infection model [6]: did not present toxicity
Gross toxicity, number of mice (TL) (mice; [8]): 2 (TL-1)
Toxicity in preliminary mouse experiments, in words (mice; single dose, peritoneally): lacked toxicity

LL-37: human cathelicidin LL-37, used for comparison
Cytotoxic activity, Peptide Concentration ([1]; RAW 264.7 (Table 2)): 100 µmol/L
Cytotoxic activity, Peptide Concentration [1, 7]: 100 µmol/L
Cytotoxic activity, Peptide Concentration ([3]; hRBCs): 87 µmol/L
Cytotoxic activity, Peptide Concentration ([4]; L929): 95 µmol/L
Hemolytic activity, Peptide Concentration [2]: 100 µmol/L

CC[C@H](C)[C@H](NC(=O)[C@H](CCCCN)NC(=O)[C@H](CCCCN)NC(=O)[C@H](C)NC(=O)[C@H](CC(C)C)NC(=O)[C@H](C)NC(=O)[C@H](C)NC(=O)[C@H](CC(C)C)NC(=O)[C@H](C)NC(=O)[C@H](CCCCN)NC(=O)[C@H](CC(C)C)NC(=O)[C@H](CC(N)=O)NC(=O)[C@@H](NC(=O)[C@H](CC(C)C)NC(=O)[C@@H](NC(=O)[C@@H](NC(=O)[C@@H]1CCCN1C(=O)[C@@H](N)Cc1ccccc1)[C@@H](C)CC)[C@@H](C)CC)[C@@H](C)CC)C(=O)N[C@@H](CC(C)C)C(N)=O [Analog 49, FPIILINLKALAALAKKIL]
Side effects or adverse toxicity (P. aeruginosa): did not cause any side effects or adverse toxicity

C[C@@H](O)[C@H]1C(=O)N2C(C(=O)O)=C(SCCN=CN)C[C@H]12 [Imipenem, imipenem]
Cytotoxic activity, Peptide Concentration ([1]; mouse): >400 µmol/L
Cytotoxic activity, Peptide Concentration ([3]; human): >400 µmol/L
Cytotoxic activity, Peptide Concentration ([4]; mouse): >400 µmol/L
Gross toxicity, number of mice (TL) (mice; Dose 50 mg Kg^−1, five mice per group): 2 (TL-1)
Gross toxicity, number of mice (TL) (mice; [8]): 3 (TL-2)
